From patent publication US20250000885A1, “COMPOSITION COMPRISING TWO OR MORE OLIGOSACCHARIDES” (Children's Hospital Los Angeles, priority 2022, published 2025)

How the values were obtained:
[1] = test system: infant brain tissue microstructure; experiment: Diffusion Tensor Imaging (FA, MD) of newborn brain vs HMO concentration in mother's milk at 1-month, voxel-wise multiple linear regression; format: in vivo, human; conditions: for association of exposure with FA values / association of exposure with MD values: milk concentration at 1-month, total sample N=20, FDR-corrected
Source text: (§1) Twenty mother-infant pairs were recruited from maternity clinics in Los Angeles County as part of a larger cohort study, and inclusion criteria has been previously described. Briefly, mothers were included if they were ≥18 years old at delivery, had given birth to a full-term singleton newborn, were breastfeeding, and were enrolled within 1 month from delivery. […] The Institutional Review Board of Children's Hospital Los Angeles approved all procedures. Participants provided written informed consent prior to data collection.
(§2) Mother-infant pairs were assessed at 1-month postpartum. Historical health-related information was collected. Mothers pumped a full expression of breast milk that was analyzed for individual HMO concentrations. Infants underwent magnetic resonance imaging (MRI) scanning at approximately 1-month postpartum to assess brain tissue microstructure and regional cerebral blood flow (rCBF).
(§3) Breast milk was collected and analyzed following standard procedures. Mothers were asked to avoid eating and drinking for 1-hour and feeding or pumping breast milk for 1.5-hours before collection. Mothers were encouraged to pump the entire contents of a single breast expression to ensure collection of fore, mid, and hind milk to standardize milk collection as much as possible. Aliquots were stored at −80° C. until HMO characterization at the University of California San Diego. Raffinose was added to each sample as an internal standard for absolute quantification. HMOs were isolated with high-throughput solid-phase extraction, fluorescently labeled, and measured using HPLC. Nineteen HMOs were quantified based on standard retention times and mass spectrometric analysis, which accounted for >90% of total HMO composition. The initial focus, however, was on the most abundant fucosylated and sialylated HMOs reported to influence brain development in animals and infants: 2′FL, 3FL, 3′SL, and 6′SL. Secretor status was defined by the presence or near absence of HMOs 2′FL or lacto-N-fucopentaose I.
(§4) MRI data were collected on a 3 Tesla Philips Achieva MRI scanner equipped with a 32-channel receive-only head coil. All data were acquired without sedation or contrast agent. Mothers and staff lulled infants to sleep with feeding and swaddling. Scans were visually monitored and repeated for any visible motion. Detailed image quality was assessed during preprocessing within 48 hours of scan acquisition.
Diffusion Tensor Imaging (DTI), which measures the diffusion of water as influenced by characteristics of brain tissue microstructure: The template brain was selected using a 2-step procedure to find the brain that was morphologically representative of all brains in our sample, as described in FIG. 1. Quality assurance procedures were instituted to exclude datasets with excessive motion. The diffusion tensor (D) was estimated at each voxel of the pre-processed DTI data in DSI Studio (RRID:SCR_009557) and computed the scalar indices fractional anisotropy (FA), mean diffusivity (MD), axial diffusivity (AD), and radial diffusivity (RD). These maps were edited to remove nonbrain tissue and then were threshed to remove background noise. Edited MD map was used to mask out nonbrain tissue in the FA, AD, and RD maps. The edited maps for each infant were coregistered using a rigid body transformation (3 translations and 3 rotations) to the infant's T1-weighted (T1w) anatomical image, which were in turn used as an intermediary source to coregister the maps for each infant to the final template brain. The FA, AD, MD, and RD maps were then smoothed using a Gaussian kernel with FWHM=4 mm.
Descriptive statistics are presented as mean±standard deviation (SD) for continuous variables and as frequency (percentage) for categorical variables. Normal distribution and homogeneity of variances were confirmed by Shapiro-Wilks W and Levene's tests. Values >3 SD from the mean were identified as outliers. […]

[2] = test system: infant regional cerebral blood flow (rCBF); experiment: Arterial Spin Labeling (rCBF) of newborn brain vs HMO concentration in mother's milk at 1-month, voxel-wise multiple linear regression; format: in vivo, human; conditions: for association of exposure with rCBF: milk concentration at 1-month, total sample N=20, FDR-corrected; for B, association of exposure with rCBF: white matter
Source text: as §1, §2, §3, §4
Arterial Spin Labeling (ASL), which quantifies rCBF, a surrogate measure of cellular metabolism: The rCBF brain images and the Mo_wM image to the first rCBF image for each participant were aligned in native imaging space to correct for head motion. Images with >0.5 mm inter-frame motion were excluded from further processing. […] An in-house software was used to construct for each infant a voxel-wise map of rCBF from the ASL time series and Mo_wm image: 1) pair-wise subtracted the control images from the labeled images; 2) Perfusion-weighted images were calculated by pair-wise subtraction of the control and labeled images, followed by averaging across the imaging time series. The perfusion map (rCBF) was calculated using a single compartment model. A linear transformation with 6 degrees of freedom was used to coregister the quantitative rCBF maps for each infant to their T1-weighted anatomical images, which were in turn used as an intermediary source to coregister the rCBF images for each infant to the final brain template. […]

piglets = conditions: cited from earlier work; for learning and memory tasks compared to controls: piglets fed the substance; for cognitive performance: piglets, feeding

SMILES: CC(=O)N[C@H]1[C@H]([C@H](O)[C@H](O)CO)O[C@@](O[C@H]2[C@@H](O)[C@@H](CO)O[C@@H](O[C@H]3[C@H](O)[C@@H](O)C(O)O[C@@H]3CO)[C@@H]2O)(C(=O)O)C[C@@H]1O (stereo partly shown) [3′SL, 3′-sialyllactose]
- B, association of exposure with MD values ([1]; left posterior corona radiata, pCR): −0.10
- association of exposure with FA values [1]: increased FA values
- association of exposure with MD values [1]: reduced MD values
- B, association of exposure with FA values ([1]; right DLPFC): 0.03
- B, association of exposure with FA values ([1]; right aCR): 0.04
- association of exposure with rCBF [2]: increased rCBF
- B, association of exposure with rCBF ([2]; CC): 0.06
- B, association of exposure with rCBF ([2]; IC): 0.04
- B, association of exposure with rCBF ([2]; aCR): 0.07
- learning and memory tasks compared to controls (piglets): performed better on learning and memory tasks
- cognitive performance (piglets): improved cognitive performance

SMILES: CC(=O)N[C@H]1[C@H]([C@H](O)[C@H](O)CO)O[C@@](OC[C@H]2O[C@@H](O[C@H]3[C@H](O)[C@@H](O)[C@H](O)O[C@@H]3CO)[C@H](O)[C@@H](O)[C@H]2O)(C(=O)O)C[C@@H]1O [6′SL, 6′-sialyllactose, reference compound]
- association of exposure with FA values [1]: not significantly associated
- association of exposure with MD values [1]: not significantly associated
- association of exposure with rCBF [2]: not significantly associated
- learning and memory tasks compared to controls (piglets): performed better on learning and memory tasks
- cognitive performance (piglets): improved cognitive performance
